Reference: patent publication US10085976B2, “Pharmaceutical composition for preventing or treating neurodegenerative diseases” (AJOU UNIVERSITY INDUSTRY-ACADEMIC COOPERATION FOUNDATION, priority 2015, dated 2018)

Assays:
BV-2 cells [1] = experiment: Phagocytosis assay with fluorescent microspheres, aggregated α-syn-treated BV-2 cells; assay type: cell-based, murine; conditions: 20 μM pre-incubation 30 minutes, then 1 NM of aggregated α-syn and fluorescent microspheres for 12 hours, FIG. 4D
Experimental: (§1) FIGS. 4D and 4E are graphs showing phagocytic activity after pre-incubating BV-2 cell and rat primary microglia with 20 μM of NSC87877 as an SHP-1 inhibitor for 30 minutes, and then incubating them with 1 NM of aggregated α-syn and fluorescent microspheres for 12 hours. ** P<0.01 represents a comparison with the control group.
(§2) Further, BV-2 cells, a murine microglial cell line, were grown in Dulbecco's modified Eagle's Medium (DMEM) supplemented with 5% fetal bovine serum (FBS) and maintained at 37° C. in a humidified atmosphere of 5% CO2. Rat primary microglia from the cerebral cortices of 1-day-old Sprague-Dawley rats were cultured as described in the known literature (Kim, K. S., et al., 2012. J Biol Chem. 287, 24862-72.).
(§3) Briefly, BV-2 cells (5×10^4 cells per well) were cultured in a 12 well plate overnight. The medium was then removed and replaced with fresh DMEM containing 5% FBS. […] The five random fields of cells (>100 cells) were counted under a confocal microscope (Zeiss, Germany). Percentage of phagocytic cells was analyzed by a known method (Park, J. Y., et al., 2008. Glia. 56, 1215-23.). For cell viability assay, BV-2 cells were treated with 1 μM of aggregated α-syn for 12 hours, and then LDH release was measured using an LDH-cytotoxicity assay kit (Biovision, CA) according to the manufacturer's instructions. […]

rat primary microglia = experiment: Phagocytosis assay with fluorescent microspheres, aggregated α-syn-treated rat primary microglia; assay type: cell-based; conditions: 20 μM pre-incubation 30 minutes, then 1 NM of aggregated α-syn and fluorescent microspheres for 12 hours, FIG. 4E
Experimental: as §1, §2, §3

BV-2 cells [2] = experiment: α-syn propagation, two-chamber co-culture with α-syn-overexpressed SH-SY5Y cells, immunostaining (BV-2); assay type: cell-based, murine; conditions: co-culture 12 hours, vs PBS-treated group, FIGS. 10B, 10E
Experimental: FIGS. 10B and 10E are images and graphs showing that α-syn propagation was reduced by treatment of SHP-1/2 inhibitor, NSC87877. *** P<0.001 represents a comparison with the PBS-treated group.
(§4) The prepared SHP-1 knockdown SH-SY5Y dopaminergic neuronal cell lines (SHP-1 KD1 and SHP-1 KD2) were co-cultured with α-syn-overexpressed SH-SY5Y dopaminergic neuronal cell line using the two-chamber system for 12 hours. The co-culture is briefly summarized as follows. SH-SY5Y or BV2 or OLN93 cell was seeded at a density of 4×10^4 cell per well on a 12-well cover glass, and α-syn-overexpressed SH-SY5Y cell was seeded at a density of 4×10^4 cell per well on a 12-well transwell. Each of the cells was incubated for one day, and then the transwell (α-syn-overexpressed SH-SY5Y cell) was transferred to the 12-well cover glass (SH-SY5Y cell), followed by co-culture for 12 hours, and then immunostaining.

SH-SY5Y cells = experiment: α-syn propagation, two-chamber co-culture with α-syn-overexpressed SH-SY5Y cells, immunostaining (SH-SY5Y); assay type: cell-based, human; conditions: co-culture 12 hours, vs PBS-treated group, FIGS. 10I, 10K
Experimental: FIGS. 10I and 10K are images and graphs showing that propagation of aggregated α-syn is reduced in SH-SY5Y cell line treated with the SHP-1,2 inhibitor NSC87877, similar to the SHP-1 knockdown cells. *** P<0.001 represents a comparison with the PBS-treated group.
as §4

OLN 93 cell line = experiment: α-syn propagation, two-chamber co-culture with α-syn-overexpressed SH-SY5Y cells, immunostaining (OLN 93); assay type: cell-based; conditions: OLN 93 cells; co-culture 12 hours; vs PBS-treated group; FIGS. 10N, 10P
Experimental: FIGS. 10N and 10P are images and graphs showing that propagation of α-syn is reduced in OLN 93 cell line treated with the SHP-1,2 inhibitor NSC87877. *** P<0.001 represents a comparison with the PBS-treated group.
as §4

rat microglia = experiment: α-syn propagation, two-chamber co-culture with α-syn-overexpressed SH-SY5Y cells, immunostaining (primary microglia); assay type: cell-based; conditions: vs PBS-treated group, FIGS. 10C, 10F
Experimental: FIGS. 10C and 10F are images and graphs showing that α-syn propagation was reduced in rat microglia by treatment of the SHP-1/2 inhibitor, NSC87877. Scale bar indicates 20 μm, and *** P<0.001 represents a comparison with the PBS-treated group.
as §4

[3] = system: differentiated SH-SY5Y cells; experiment: LDH release cytotoxicity assay, aggregated α-syn on differentiated SH-SY5Y dopaminergic neurons; assay type: cell-based, human; conditions: 1 μM aggregated α-syn and 50 μM inhibitor for 2 days, FIG. 12B
Description: FIG. 12B is a graph showing the effect of the SHP-1/2 inhibitor, NSC87877 on cytotoxicity of aggregated α-syn in undifferentiated SH-SY5Y cells and differentiated SH-SY5Y cells.
FIGS. 12C and 12D are images and graphs showing the effect of the SHP-1/2 inhibitor, NSC87877 on cytotoxicity of aggregated α-syn in differentiated SH-SY5Y cells. ** P<0.01 represents a comparison with the PBS-treated SHSY5Y.
To differentiate SH-SY5Y cells to dopaminergic neurons, SH-SY5Y cells seeded in a culture plate were cultured in a medium containing 50 μM of retinoic acid for 5 days. In this regard, the medium was replaced by a fresh medium containing 50 μM of retinoic acid at 3 days, 4 days, and 5 days after initiation of the culture. Further, in order to assess cytotoxicity, the differentiated SH-SY5Y dopaminergic neurons and undifferentiated SH-SY5Y dopaminergic neurons were seeded in 12-well, respectively, followed by incubation for one day. Thereafter, they were cultured in a medium containing 1 μM of aggregated α-syn and 50 μM of the SHP-1/-2 inhibitor NSC87877 for 2 days, and LDH (lactate dehydrogenase) release assay was performed according to the manufacturer's instructions.

[4] = system: A53Tα-syn-overexpressed SHSY5Y cells; experiment: Intracellular aggregation of eGFP-tagged A53T α-syn in co-culture, confocal microscopy; assay type: cell-based, human; conditions: co-culture with α-syn-overexpressed SHSY5Y, 5 days after treatment; FIG. 14C
Experimental: FIG. 14C is an image of confocal microscopy after differentiation with retinoic acid for 5 days in the co-culture of A53Tα-syn-overexpressed SHSY5Y and α-syn-overexpressed SHSY5Y under treatment of the SHP-1/2 inhibitor, NSC87877. Scale bar indicates 20 μm.
First, eGPF-tagged A53Tα-syn-overexpressed SHSY5Y cell line was prepared using lentivirus, and the prepared eGPP-tagged A53Tα-syn-overexpressed SHSY5Y cell line and α-syn-overexpressed SHSY5Y cell line were mixed, followed by co-culture. […] At 5 days after the co-culture, intracellular distribution of eGFP-tagged A53Tα-syn was observed under confocal microscopy.
In this regard, the SHP-1/2 inhibitor, NSC87877 was treated and A53Tα-syn-overexpressed SHSY5Y cell line and α-syn-overexpressed SHSY5Y cell line were mixed, followed by co-culture. At 5 days after NSC 87877 treatment and co-culture, intracellular distribution of eGFP-tagged A53Tα-syn was observed under confocal microscopy.

For `O=S(=O)(O)c1ccc2cc(N=Nc3cc(S(=O)(=O)O)c4cccnc4c3O)ccc2c1` [NSC87877], the “Effect on inhibition of microglial phagocytosis by aggregated α-syn” value (BV-2 cells [1]) was “efficiently rescued the inhibitory effect of aggregated α-syn on microglial phagocytosis”, the “Effect on inhibition of microglial phagocytosis by aggregated α-syn” value (rat primary microglia) was “efficiently rescued the inhibitory effect of aggregated α-syn on microglial phagocytosis” and the α-syn propagation (BV-2 cells [2]) was “α-syn propagation was also reduced”. For the same compound, the α-syn propagation (SH-SY5Y cells) was “α-syn propagation was also reduced”, the α-syn propagation (OLN 93 cell line) was “α-syn propagation was also reduced” and the α-syn propagation (rat microglia) was “reduced α-syn propagation was observed”. For the same compound, the “Neurotoxicity (cytotoxicity, LDH release) by aggregated α-syn” value [3] was “neurotoxicity by aggregated α-syn was reduced” and the “Intracellular aggregation of eGFP-tagged A53Tα-syn (eGFP distribution)” value [4] was “no aggregation in the cells”.
